From patent publication US12398097B2, “WDR5-MYC inhibitors” (Vanderbilt University, priority 2019, dated 2025)

Biological target: WDR5 (Homo sapiens, UniProt P61964)
Test: Competition-based fluorescence polarization anisotropy assay
Conditions: binding to WDR5; displacement of FITC-labeled small molecule probe (analogous to Example J2 or HCH-25) or peptide probe FITC-AHx-SEEEIDVVSV; pH 6.0; Ki converted from IC50
Procedure: Compounds of the present invention were assessed for their ability to bind to WDr5 using a competition-based fluorescence polarization anisotropy assay, similar to the method previously described. […] Fluorescence polarization measurements were performed in 384-well plates (Greiner Bio One) using a Cytation 3 plate reader (BioTek). Fluorescein isothiocyanate (FITC)-labeled peptide probe ([…]) was purchased from GenScript USA Inc and used without further purification. […] The assay buffer contained 200 mM phosphate, 300 mM NaCl, and 0.5 mM TCEP and 0.1% Chaps at pH 6.0. […] This was converted into a binding dissociation constant (Ki value) according to the formula: […] Data shown in the table below represents a K; determined from this method for each Example, using either a fluorescently labeled small molecule probe analogous to Example J2 or Example HCH-25, or the peptide probe described above, in the assay.

Row | SMILES | Ki [µM]
1 | COC[C@H]1CCCN1C(=O)c1cc(Cl)cc(NS(=O)(=O)c2cc(Br)ccc2OC)c1O [Example J57, (R)-5-Bromo-N-(5-chloro-2-hydroxy-3-(2-(methoxymethyl)pyrrolidine-1-carbonyl)phenyl)-2-methoxybenzenesulfonamide] | 8.44
2 | COCCN(C)C(=O)c1cc(Cl)cc(NS(=O)(=O)c2cc(Br)ccc2OC)c1O [Example J58, 3-((5-Bromo-2-methoxyphenyl)sulfonamido)-5-chloro-2-hydroxy-N-(2-methoxyethyl)-N-methylbenzamide] | 7.74
3 | COc1ccc(Br)cc1S(=O)(=O)Nc1cc(Cl)cc(C(=O)NCCO)c1O [Example J59, 3-((5-Bromo-2-methoxyphenyl)sulfonamido)-5-chloro-2-hydroxy-N-(2-hydroxyethyl)benzamide] | 1.17
4 | COc1ccc(Br)cc1S(=O)(=O)Nc1cc(Cl)cc(C(=O)NC2CCOC2)c1O (stereo not drawn) [Example J60, 3-((5-Bromo-2-methoxyphenyl)sulfonamido)-5-chloro-2-hydroxy-N-(tetrahydrofuran-3-yl)benzamide] | 0.94
5 | COc1ccc(Br)cc1S(=O)(=O)Nc1cc(Cl)cc(C(=O)NCCN)c1O [Example J61, N-(2-Aminoethyl)-3-((5-bromo-2-methoxyphenyl)sulfonamido)-5-chloro-2-hydroxybenzamide] | 2.68
6 | COc1ccc(Br)cc1S(=O)(=O)Nc1cc(Cl)cc(C(=O)N2CC(OC)C2)c1O [Example J62, 5-Bromo-N-(5-chloro-2-hydroxy-3-(3-methoxyazetidine-1-carbonyl)phenyl)-2-methoxybenzenesulfonamide] | 9.36
7 | COc1ccc(Br)cc1S(=O)(=O)Nc1cc(Cl)cc(C(=O)N2CC(O)C2)c1O [Example J63, 5-Bromo-N-(5-chloro-2-hydroxy-3-(3-hydroxyazetidine-1-carbonyl)phenyl)-2-methoxybenzenesulfonamide] | 5.51
8 | COc1ccc(Br)cc1S(=O)(=O)Nc1cc(Cl)cc(C(=O)N2CC(S(C)(=O)=O)C2)c1O [Example J64, 5-Bromo-N-(5-chloro-2-hydroxy-3-(3-(methylsulfonyl)azetidine-1-carbonyl)phenyl)-2-methoxybenzenesulfonamide] | 4.15
9 | COc1ccc(Br)cc1S(=O)(=O)Nc1cc(Cl)cc(C(=O)NCC2CCCO2)c1O (stereo not drawn) [Example J65, 3-((5-Bromo-2-methoxyphenyl)sulfonamido)-5-chloro-2-hydroxy-N-((tetrahydrofuran-2-yl)methyl)benzamide] | 1.02
10 | O=C(O)c1cc(Cl)cc(NS(=O)(=O)c2cc(Br)ccc2O)c1 [Example J66, 3-((5-Bromo-2-hydroxyphenyl)sulfonamido)-5-chlorobenzoic acid] | 3.51
11 | O=C(Nc1nc[nH]n1)c1cc(Cl)cc(NS(=O)(=O)c2cc(Br)ccc2O)c1 [Example J67, 3-((5-Bromo-2-hydroxyphenyl)sulfonamido)-5-chloro-N-(1H-1,2,4-triazol-3-yl)benzamide] | 0.36
12 | CN(CCO)C(=O)c1cc(C2CC2)cc(NS(=O)(=O)c2cc(Br)ccc2O)c1O [Example J82, 3-((5-Bromo-2-hydroxyphenyl)sulfonamido)-5-cyclopropyl-2-hydroxy-N-(2-hydroxyethyl)-N-methylbenzamide] | 3.76
13 | COCCN(C)C(=O)c1cc(C2CC2)cc(NS(=O)(=O)c2cc(Br)ccc2O)c1O [Example J83, 3-((5-Bromo-2-hydroxyphenyl)sulfonamido)-5-cyclopropyl-2-hydroxy-N-(2-methoxyethyl)-N-methylbenzamide] | 6.38
14 | O=C(NCCN1CCOCC1)c1cc(C2CC2)cc(NS(=O)(=O)c2cc(Br)ccc2O)c1O [Example J84, 3-((5-Bromo-2-hydroxyphenyl)sulfonamido)-5-cyclopropyl-2-hydroxy-N-(2-morpholinoethyl)benzamide] | 1.07
15 | O=C(c1cc(C2CC2)cc(NS(=O)(=O)c2cc(Br)ccc2O)c1O)N1CCOCC1 [Example J85, 5-Bromo-N-(5-cyclopropyl-2-hydroxy-3-(morpholine-4-carbonyl)phenyl)-2-hydroxybenzenesulfonamide] | 1.44
16 | O=C(NCCO)c1cc(C2CC2)cc(NS(=O)(=O)c2cc(Br)ccc2O)c1O [Example J87, 3-((5-Bromo-2-hydroxyphenyl)sulfonamido)-5-cyclopropyl-2-hydroxy-N-(2-hydroxyethyl)benzamide] | 0.59
17 | COCCCNC(=O)c1cc(C2CC2)cc(NS(=O)(=O)c2cc(Br)ccc2O)c1O [Example J88, 3-((5-Bromo-2-hydroxyphenyl)sulfonamido)-5-cyclopropyl-2-hydroxy-N-(3-methoxypropyl)benzamide] | 0.6
18 | CN(C)CCNC(=O)c1cc(C2CC2)cc(NS(=O)(=O)c2cc(Br)ccc2O)c1O [Example J89] | 1.31
19 | O=C(NC1CCOC1)c1cc(C2CC2)cc(NS(=O)(=O)c2cc(Br)ccc2O)c1O (stereo not drawn) [Example J90, 3-((5-Bromo-2-hydroxyphenyl)sulfonamido)-5-cyclopropyl-2-hydroxy-N-(tetrahydrofuran-3-yl)benzamide] | 0.74
20 | O=C(NCCCO)c1cc(C2CC2)cc(NS(=O)(=O)c2cc(Br)ccc2O)c1O [Example J91, 3-((5-Bromo-2-hydroxyphenyl)sulfonamido)-5-cyclopropyl-2-hydroxy-N-(3-hydroxypropyl)benzamide] | 0.94
21 | CN1CCN(C(=O)c2cc(C3CC3)cc(NS(=O)(=O)c3cc(Br)ccc3O)c2O)CC1 [Example J92, 5-Bromo-N-(5-cyclopropyl-2-hydroxy-3-(4-methylpiperazine-1-carbonyl)phenyl)-2-hydroxybenzenesulfonamide] | 4.44

Results, then the molecule that gave them:

Row | Ki [µM] | SMILES
22 | 0.05 | O=C(O)c1cc(C2CC2)cc(NS(=O)(=O)c2cc(Br)ccc2O)c1O [Example J68, 3-((5-Bromo-2-hydroxyphenyl)sulfonamido)-5-cyclopropyl-2-hydroxybenzoic acid]
23 | 1.94 | COc1ccc(Br)cc1S(=O)(=O)Nc1cc(C2CC2)cc(C(=O)O)c1O [Example J69, 3-((5-Bromo-2-methoxyphenyl)sulfonamido)-5-cyclopropyl-2-hydroxybenzoic acid]
24 | 0.13 | O=C(O)c1cc(C2CC2)cc(NS(=O)(=O)c2cc(Br)cc(Cl)c2O)c1O [Example J70, 3-((5-Bromo-3-chloro-2-hydroxyphenyl)sulfonamido)-5-cyclopropyl-2-hydroxybenzoic acid]
25 | 2.72 | COc1cc(Cl)c(Br)cc1S(=O)(=O)Nc1cc(C2CC2)cc(C(=O)O)c1O [Example J71, 3-((5-Bromo-4-chloro-2-methoxyphenyl)sulfonamido)-5-cyclopropyl-2-hydroxybenzoic acid]
26 | 1.11 | COc1cc(F)c(Br)cc1S(=O)(=O)Nc1cc(C2CC2)cc(C(=O)O)c1O [Example J72, 3-((5-Bromo-4-fluoro-2-methoxyphenyl)sulfonamido)-5-cyclopropyl-2-hydroxybenzoic acid]
27 | 5.98 | O=C(O)c1cc(C2CC2)cc(NS(=O)(=O)c2cc(Br)ccc2NC2CC2)c1O [Example J73, 3-((5-Bromo-2-(cyclopropylamino)phenyl)sulfonamido)-5-cyclopropyl-2-hydroxybenzoic acid]
28 | 3.93 | CC(C)CNc1ccc(Br)cc1S(=O)(=O)Nc1cc(C2CC2)cc(C(=O)O)c1O [Example J74, 3-((5-Bromo-2-(isobutylamino)phenyl)sulfonamido)-5-cyclopropyl-2-hydroxybenzoic acid]
29 | 5.17 | CC(C)[C@@H](C)Nc1ccc(Br)cc1S(=O)(=O)Nc1cc(C2CC2)cc(C(=O)O)c1O [Example J75, (R)-3-((5-Bromo-2-((3-methylbutan-2-yl)amino)phenyl)sulfonamido)-5-cyclopropyl-2-hydroxybenzoic acid]
30 | 3.24 | CC(C)[C@H](C)Nc1ccc(Br)cc1S(=O)(=O)Nc1cc(C2CC2)cc(C(=O)O)c1O [Example J76, (S)-3-((5-Bromo-2-((3-methylbutan-2-yl)amino)phenyl)sulfonamido)-5-cyclopropyl-2-hydroxybenzoic acid]
31 | 2.87 | C[C@@H](Nc1ccc(Br)cc1S(=O)(=O)Nc1cc(C2CC2)cc(C(=O)O)c1O)C1CC1 [Example J77, (R)-3-((5-Bromo-2-((1-cyclopropylethyl)amino)phenyl)sulfonamido)-5-cyclopropyl-2-hydroxybenzoic acid]
32 | 3.99 | COC[C@H]1CCCN1c1ccc(Br)cc1S(=O)(=O)Nc1cc(C2CC2)cc(C(=O)O)c1O [Example J78, (R)-3-((5-Bromo-2-(2-(methoxymethyl)pyrrolidin-1-yl)phenyl)sulfonamido)-5-cyclopropyl-2-hydroxybenzoic acid]
33 | 5.27 | O=C(O)c1cc(C2CC2)cc(NS(=O)(=O)c2cc(Br)ccc2NCC2CC2)c1O [Example J79, 3-((5-Bromo-2-((cyclopropylmethyl)amino)phenyl)sulfonamido)-5-cyclopropyl-2-hydroxybenzoic acid]
34 | 1.64 | NC(=O)c1cc(C2CC2)cc(NS(=O)(=O)c2cc(Br)ccc2O)c1O [Example J80, 3-((5-Bromo-2-hydroxyphenyl)sulfonamido)-5-cyclopropyl-2-hydroxybenzamide]
35 | 0.75 | CNC(=O)c1cc(C2CC2)cc(NS(=O)(=O)c2cc(Br)ccc2O)c1O [Example J81, 3-((5-Bromo-2-hydroxyphenyl)sulfonamido)-5-cyclopropyl-2-hydroxy-N-methylbenzamide]
36 | 0.56 | COCCNC(=O)c1cc(C2CC2)cc(NS(=O)(=O)c2cc(Br)ccc2O)c1O [Example J86, 3-((5-Bromo-2-hydroxyphenyl)sulfonamido)-5-cyclopropyl-2-hydroxy-N-(2-methoxyethyl)benzamide]
